Paper PMC12084609, “Structural insights into small-molecule agonist recognition and activation of complement receptor C3aR” (The EMBO Journal, 2025)
Residue numbers refer to the chain shown, from its start. Values joined by “and” are separate entries in the source; they are usually repeats but may differ in a detail not shown here. Equal values may be shown once. Read-outs that look alike come from different tables or passages of the source.

Columns and labels:
Type in all cases: cell-based
C3aR I102^3.32A = target: T1, C3aR I102^3.32A (Homo sapiens, UniProt Q16581, I102A); assay: GloSensor-based cAMP assay, C3aR mutant I102A
T1 construct: expressed in transfected cells; host or cells: HEK293T
T1 sequence (Q16581 1-482 I102A): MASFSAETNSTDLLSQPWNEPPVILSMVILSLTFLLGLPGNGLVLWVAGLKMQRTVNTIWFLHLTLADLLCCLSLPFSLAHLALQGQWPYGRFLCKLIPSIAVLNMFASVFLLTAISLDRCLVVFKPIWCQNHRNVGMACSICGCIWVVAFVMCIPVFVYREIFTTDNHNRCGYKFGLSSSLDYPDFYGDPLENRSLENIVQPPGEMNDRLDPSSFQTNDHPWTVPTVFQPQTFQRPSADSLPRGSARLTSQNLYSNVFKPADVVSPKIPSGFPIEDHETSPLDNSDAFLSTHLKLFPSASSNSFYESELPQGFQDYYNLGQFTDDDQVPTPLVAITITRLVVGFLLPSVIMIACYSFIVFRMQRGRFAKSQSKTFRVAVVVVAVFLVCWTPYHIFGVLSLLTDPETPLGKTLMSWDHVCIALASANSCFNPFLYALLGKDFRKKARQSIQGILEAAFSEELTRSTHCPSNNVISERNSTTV
Experimental: (§1) HEK293T cells were seeded on 6-well plates (NEST) and transfected with pGlosensor™-22F plasmids (Promega) and pcDNA3.1 plasmids encoding C3aR or its mutants an with N-terminal FLAG tag. After 48 h, cells were detached with Accutase solution (Sigma-Aldrich) and washed with PBS, and resuspended in assay buffer (CO2-independent medium with 0.5 mg mL^−1D-luciferin). 100,000–200,000 cells were seeded on 96-well white bottom plates (SPL) and incubated at 37 °C for 45 min followed by 45 min incubation at room temperature. After 90 min of incubation, basal luminescence signals were recorded. In total, 25 μl of test ligand with various concentrations and 1 μM Forskolin (Sigma-Aldrich) were treated to the cells and luminescence signals were measured by Tristar 2 LB 942 multimode reader (Berthold). […] Relative luminescence unit (%) was calculated with the signal of wells treated with vehicle as 0% and the signal of wells treated with 1 μM Forskolin as 100% (DiRaddo et al, [2014]). Nonlinear regression was performed using a three-parameter logistic equation.

C3aR Y393^6.51A = target: T2, C3aR Y393^6.51A (Homo sapiens, UniProt Q16581, Y393A); assay: GloSensor-based cAMP assay, C3aR mutant Y393A
T2 construct: expressed in transfected cells; host or cells: HEK293T
T2 sequence (Q16581 1-482 Y393A): T1 sequence (Q16581 1-482 I102A) with A102I, Y393A
Experimental: as §1

C3aR L30^1.39A = target: T3, C3aR L30^1.39A (Homo sapiens, UniProt Q16581, L30A); assay: GloSensor-based cAMP assay, C3aR mutant L30A
T3 construct: expressed in transfected cells; host or cells: HEK293T
T3 sequence (Q16581 1-482 L30A): T1 sequence (Q16581 1-482 I102A) with L30A, A102I
Experimental: as §1

Compound `Cc1cc(C(c2ccc(Cl)cc2)c2ccc(Cl)cc2)sc1C(=O)N[C@@H](CCCNC(=N)N)C(=O)O` [JR14a, reference compound] has a remaining activity at 1 µM (C3aR I102^3.32A; I102A, Log[JR14a (M)] -6, single replicates, read-out: cAMP response (% Forskolin)) of 11.4%, a remaining activity at 0.1 µM (C3aR I102^3.32A; I102A, Log[JR14a (M)] -7, single replicates, read-out: cAMP response (% Forskolin)) of 12.3% and a remaining activity at 0.01 µM (C3aR I102^3.32A; I102A, Log[JR14a (M)] -8, single replicates, read-out: cAMP response (% Forskolin)) of 52.6%. The remaining activity at 0.001 µM (C3aR I102^3.32A; I102A, Log[JR14a (M)] -9, single replicates, read-out: cAMP response (% Forskolin)) was 79.2%, the remaining activity at 0.0001 µM (C3aR I102^3.32A; I102A, Log[JR14a (M)] -10, single replicates, read-out: cAMP response (% Forskolin)) was 97.7% and the remaining activity at 10 pM (C3aR I102^3.32A; I102A, Log[JR14a (M)] -11, single replicates, read-out: cAMP response (% Forskolin)) was 104%. The “ΔpIC50 ± SE of Diff.” value (C3aR I102^3.32A; I102^3.32A relative to WT C3aR) was -0.13 ± 0.07, the IC50 (C3aR I102^3.32A; IC50, I102^3.32A, dose-response plot) was 7.05 nM and the IC50 (C3aR I102^3.32A; pIC50 (Replicate), I102^3.32A, individual replicates) was 7.76 nM and 9.12 nM and 4.68 nM. For the same compound, the IC50 (C3aR I102^3.32A; pIC50 ± SEM (Mean), I102^3.32A, mean of independent experiments) was 6.92 nM, the IC50 (C3aR Y393^6.51A; IC50, Y393^6.51A, dose-response plot) was 312 nM and the remaining activity at 1 µM (C3aR Y393^6.51A; Y393A, Log[JR14a (M)] -6, single replicates, read-out: cAMP response (% Forskolin)) was 21.8%. For the same compound, the remaining activity at 0.1 µM (C3aR Y393^6.51A; Y393A, Log[JR14a (M)] -7, single replicates, read-out: cAMP response (% Forskolin)) was 72.2%, the remaining activity at 0.01 µM (C3aR Y393^6.51A; Y393A, Log[JR14a (M)] -8, single replicates, read-out: cAMP response (% Forskolin)) was 96.3% and the remaining activity at 0.0001 µM (C3aR Y393^6.51A; Y393A, Log[JR14a (M)] -10, single replicates, read-out: cAMP response (% Forskolin)) was 94.3%. The remaining activity at 10 pM (C3aR Y393^6.51A; Y393A, Log[JR14a (M)] -11, single replicates, read-out: cAMP response (% Forskolin)) was 93.5%, the IC50 (C3aR Y393^6.51A; pIC50 (Replicate), Y393^6.51A, individual replicates) was 309 nM and 398 nM and 263 nM and the IC50 (C3aR Y393^6.51A; pIC50 ± SEM (Mean), Y393^6.51A, mean of independent experiments) was 316 nM. For the same compound, the “Mean Diff. of pIC50, WT vs. L30A” value (C3aR L30^1.39A; Dunnett's multiple comparisons test, WT minus mutant) was 0.012, the IC50 (C3aR L30^1.39A; IC50, L30^1.39A, dose-response plot) was 5.58 nM and the remaining activity at 1 µM (C3aR L30^1.39A; L30A, Log[JR14a (M)] -6, single replicates, read-out: cAMP response (% Forskolin)) was 12.9%. For the same compound, the remaining activity at 0.1 µM (C3aR L30^1.39A; L30A, Log[JR14a (M)] -7, single replicates, read-out: cAMP response (% Forskolin)) was 13.4%, the remaining activity at 0.001 µM (C3aR L30^1.39A; L30A, Log[JR14a (M)] -9, single replicates, read-out: cAMP response (% Forskolin)) was 82.6% and the remaining activity at 0.0001 µM (C3aR L30^1.39A; L30A, Log[JR14a (M)] -10, single replicates, read-out: cAMP response (% Forskolin)) was 97.9%. For the same compound, the remaining activity at 10 pM (C3aR L30^1.39A; L30A, Log[JR14a (M)] -11, single replicates, read-out: cAMP response (% Forskolin)) was 98.1%, the “ΔpIC50 ± SE of Diff.” value (C3aR L30^1.39A; L30^1.39A relative to WT C3aR) was -0.01 ± 0.01 and the IC50 (C3aR L30^1.39A; pIC50 (Replicate), L30^1.39A, individual replicates) was 8.91 nM and 6.92 nM. It also gave an IC50 (C3aR L30^1.39A; pIC50 ± SEM (Mean), L30^1.39A, mean of independent experiments) of 5.37 nM and an IC50 (C3aR L30^1.39A; read-out: pIC50 (Replicate) (converted)) of 2.51 nM.
